According to patent publication US9884823B2, “Oxime ether acetate compound, preparation method therefor and weeding application thereof” (ZHEJIANG UNIVERSITY OF TECHNOLOGY, priority 2014, dated 2018):
Where two headings read alike, the source gives them in different places.

Experiments:
[1] = test system: Barnyardgrass; test: Culture dish method (general screening); type: in vivo, barnyard grass; conditions: 100 mg/L, 7 days
From the text: (§3) Culture dish method (general screening): The test targets were radish, cucumber, rape, wheat, sorghum and barnyard grass; the seeds of wheat, sorghum and radish were germinated in advance, and the uniform emerge-germinating seeds were used in the test.

[2] = test system: Cucumber; test: Culture dish method (general screening); type: in vivo; conditions: 100 mg/L, 7 days
From the text: as §3

[3] = test system: Mustard; conditions: 150 g a.i./ha, 30 days, Table 9
[4] = test system: Wheat; test: Culture dish method (general screening); type: in vivo; conditions: 100 mg/L, 7 days
From the text: as §3

[5] = test system: Rape; test: Culture dish method (general screening); type: in vivo; conditions: 100 mg/L, 7 days
From the text: as §3

[6] = test system: grass weeds such as crabgrass, barnyard grass, dog point; conditions: 150 g a.i./ha; for activity for grass targets such as crabgrass and dog point: 30 days after administration, Table 9 summary; for activity on grass weeds such as crabgrass, dog point: postemergence spraying, 30 days
From the text: (§1) The raw drug which was selected from the compounds in table 1 was weighed using an analytical balance (0.0001 g), and dissolved in DMF containing 1 wt % Tween-80 emulsifier to prepare a mother liquor of raw drug with a mass concentration of 1.0˜5.0%, and then diluted with distilled water, to prepare preparations at desired concentrations according to the ratio of ingredients in Examples 8, 9 and 10.
(§2) The test targets were mustard, small quinoa, Abutilon, amaranthus retroflexus, Eclipta prostrata, crabgrass, dog point. A pot with a diameter of 7.5 cm was used, filled with composite soil (garden soil:nursery matrix, 1:2, v/v) to ¾ of the pot, then the above […] kinds of weeds targets were directly seeded (germination rate ≧85%), covered with soil at a thickness of 0.2 cm. When the weeds grew to 3-leaf stage, pre-emergence soil treatment for weeds planting, and then spraying was performed.

[7] = test system: broadleaf weeds such as mustard, small quinoa, Abutilon, Amaranthus retroflexus and Eclipta prostrate; conditions: 150 g a.i./ha; for herbicidal activity on broadleaf weeds targets: 30 days after administration, Table 9 summary; for activity on the growth of broadleaf weeds: postemergence spraying, 30 days, vs clear water control
From the text: as §1, §2

[8] = test system: Small quinoa; conditions: 150 g a.i./ha, 30 days, Table 9
From the text: as §1, §2

[9] = test system: Chinese sorghum; test: Culture dish method (general screening); type: in vivo; conditions: 100 mg/L, 7 days
From the text: as §3

[10] = test system: Radish; test: Culture dish method (general screening); type: in vivo; conditions: 100 mg/L, 7 days
From the text: as §3

[11] = test system: Dog point; test: Potted plants live body test; type: in vivo; conditions: 150 g a.i./ha, 30 days, Table 9
From the text: as §1, §2

[12] = test system: Crabgrass; test: Potted plants live body test; type: in vivo; conditions: 150 g a.i./ha, 30 days, Table 9
From the text: as §1, §2

[13] = test system: Abutilon; test: Potted plants live body test; type: in vivo; conditions: 150 g a.i./ha, 30 days, Table 9
From the text: as §1, §2

[14] = test system: amaranthus retroflexus; test: Potted plants live body test; type: in vivo; conditions: 150 g a.i./ha, 30 days, Table 9
From the text: as §1, §2

[15] = test system: Eclipta prostrata; test: Potted plants live body test; type: in vivo; conditions: 150 g a.i./ha, 30 days, Table 9
From the text: as §1, §2

| SMILES | inhibition rate, Barnyardgrass Root [1] | inhibition rate, Barnyardgrass Stem [1] | inhibition rate, Cucumber Root [2] | inhibition rate, Cucumber Stem [2] | efficiency, Mustard ([3]; Postemergence spraying) | efficiency, Mustard ([3]; Pre-emergence soil treatment) | inhibition rate, Wheat Root [4] | inhibition rate, Wheat Stem [4] | inhibition rate, Rape Root [5] | inhibition rate, Rape Stem [5] | activity for grass targets such as crabgrass and dog point [6] | activity on grass weeds such as crabgrass, dog point [6] | herbicidal activity on broadleaf weeds targets [7] | activity on the growth of broadleaf weeds [7] | efficiency, Small quinoa ([8]; Postemergence spraying) | efficiency, Small quinoa ([8]; Pre-emergence soil treatment) | inhibition rate, Chinese sorghum Root [9] | inhibition rate, Chinese sorghum Stem [9] | inhibition rate, Radish Root [10] | inhibition rate, Radish Stem [10] | further results |
| --- | --- | --- | --- | --- | --- | --- | --- | --- | --- | --- | --- | --- | --- | --- | --- | --- | --- | --- | --- | --- | --- |
| CON=C(C(=O)OC)c1ccccc1COc1cccc(-c2cccc(C)n2)c1 [Compound 85] | 80% | 0% | 80% | 30% | 30% | 20% | 60% | 20% | 80% | 50% | poor activity | almost have no activity | herbicidal activity | inhibitory activity | 0% | 0% | 80% | 30% | 50% | 50% | efficiency, Dog point ([11]; Postemergence spraying): 0%; efficiency, Dog point ([11]; Pre-emergence soil treatment): 0%; efficiency, Crabgrass ([12]; Postemergence spraying): 0%; efficiency, Crabgrass ([12]; Pre-emergence soil treatment): 0%; efficiency, Abutilon ([13]; Postemergence spraying): 50%; efficiency, Abutilon ([13]; Pre-emergence soil treatment): 20%; efficiency, amaranthus retroflexus ([14]; Postemergence spraying): 0%; efficiency, amaranthus retroflexus ([14]; Pre-emergence soil treatment): 0%; efficiency, Eclipta prostrata ([15]; Postemergence spraying): 50%; efficiency, Eclipta prostrata ([15]; Pre-emergence soil treatment): 0% |
| CON=C(C(=O)OC)c1ccccc1COc1cccc(-c2ncc(Cl)cc2Cl)c1 [Compound 98] | 60% | 20% | 50% | 80% | 100% | 50% | 20% | 0% | 50% | 80% | poor activity | almost have no activity | herbicidal activity | inhibitory activity | 75% | 45% | 50% | 30% | 50% | 80% | efficiency, Dog point ([11]; Postemergence spraying): 0%; efficiency, Dog point ([11]; Pre-emergence soil treatment): 0%; efficiency, Crabgrass ([12]; Postemergence spraying): 0%; efficiency, Crabgrass ([12]; Pre-emergence soil treatment): 0%; efficiency, Abutilon ([13]; Postemergence spraying): 80%; efficiency, Abutilon ([13]; Pre-emergence soil treatment): 60%; efficiency, amaranthus retroflexus ([14]; Postemergence spraying): 80%; efficiency, amaranthus retroflexus ([14]; Pre-emergence soil treatment): 50%; efficiency, Eclipta prostrata ([15]; Postemergence spraying): 80%; efficiency, Eclipta prostrata ([15]; Pre-emergence soil treatment): 50% |
| CON=C(C(=O)OC)c1ccccc1COc1cccc(-c2nc(Cl)c(Cl)cc2Cl)c1 [Compound 99] | 50% | 0% | 70% | 0% | 60% | 0% | 30% | 0% | 60% | 30% | poor activity | almost have no activity | herbicidal activity | inhibitory activity | 50% | 30% | 50% | 50% | 60% | 50% | efficiency, Dog point ([11]; Postemergence spraying): 0%; efficiency, Dog point ([11]; Pre-emergence soil treatment): 0%; efficiency, Crabgrass ([12]; Postemergence spraying): 0%; efficiency, Crabgrass ([12]; Pre-emergence soil treatment): 0%; efficiency, Abutilon ([13]; Postemergence spraying): 20%; efficiency, Abutilon ([13]; Pre-emergence soil treatment): 0%; efficiency, amaranthus retroflexus ([14]; Postemergence spraying): 40%; efficiency, amaranthus retroflexus ([14]; Pre-emergence soil treatment): 0%; efficiency, Eclipta prostrata ([15]; Postemergence spraying): 25%; efficiency, Eclipta prostrata ([15]; Pre-emergence soil treatment): 0% |
| CON=C(C(=O)OC)c1ccccc1COc1cc(-c2ccccn2)ccc1C(F)(F)F [Compound 112] | 0% | 0% | 50% | 80% | 100% | 50% | 0% | 0% | 50% | 80% | poor activity | almost have no activity | herbicidal activity | inhibitory activity | 75% | 45% | 0% | 0% | 50% | 80% | efficiency, Dog point ([11]; Postemergence spraying): 0%; efficiency, Dog point ([11]; Pre-emergence soil treatment): 0%; efficiency, Crabgrass ([12]; Postemergence spraying): 0%; efficiency, Crabgrass ([12]; Pre-emergence soil treatment): 0%; efficiency, Abutilon ([13]; Postemergence spraying): 50%; efficiency, Abutilon ([13]; Pre-emergence soil treatment): 0%; efficiency, amaranthus retroflexus ([14]; Postemergence spraying): 80%; efficiency, amaranthus retroflexus ([14]; Pre-emergence soil treatment): 50%; efficiency, Eclipta prostrata ([15]; Postemergence spraying): 60%; efficiency, Eclipta prostrata ([15]; Pre-emergence soil treatment): 0% |
| CON=C(C(=O)OC)c1ccccc1COc1ccc(-c2cccc(C)n2)cc1 [Compound 120] | 60% | 20% | 70% | 30% | 40% | 20% | 20% | 0% | 60% | 0% | poor activity | almost have no activity | herbicidal activity | inhibitory activity | 60% | 50% | 50% | 30% | 50% | 0% | efficiency, Dog point ([11]; Postemergence spraying): 0%; efficiency, Dog point ([11]; Pre-emergence soil treatment): 0%; efficiency, Crabgrass ([12]; Postemergence spraying): 0%; efficiency, Crabgrass ([12]; Pre-emergence soil treatment): 0%; efficiency, Abutilon ([13]; Postemergence spraying): 50%; efficiency, Abutilon ([13]; Pre-emergence soil treatment): 0%; efficiency, amaranthus retroflexus ([14]; Postemergence spraying): 20%; efficiency, amaranthus retroflexus ([14]; Pre-emergence soil treatment): 0%; efficiency, Eclipta prostrata ([15]; Postemergence spraying): 30%; efficiency, Eclipta prostrata ([15]; Pre-emergence soil treatment): 0% |
